Laboratory results from US8765750B2, “Piperazine compound having a PGDS inhibitory effect” (Taiho Pharmaceutical Co., Ltd., priority 2010, dated 2014).

Legend:
[1] = molecular target: human H-PGDS (Homo sapiens (Human), UniProt O60760); assay: Hematopoietic prostaglandin D synthase (H-PGDS) inhibiting action; assay type: biochemical; conditions: for inhibition at 0.1 µM / Inhibition Rate (%) 0.1 μM: compound at 0.1 μM, relative to the control group, human H-PGDS, [14C] prostaglandin H2 10 μM; for inhibition at 0.1 µM: read-out: Inhibition Rate (%) 0.1 μM; for IC50: inhibition concentration at 50% relative to H-PGDS, read-out: IC50
Sequence of human H-PGDS (O60760 whole entry): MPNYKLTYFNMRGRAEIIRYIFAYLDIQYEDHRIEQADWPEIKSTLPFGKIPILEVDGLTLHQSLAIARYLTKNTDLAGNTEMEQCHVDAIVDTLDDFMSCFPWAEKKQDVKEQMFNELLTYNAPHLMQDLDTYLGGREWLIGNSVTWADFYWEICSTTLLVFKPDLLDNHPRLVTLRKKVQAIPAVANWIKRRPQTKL
Method: The test was carried out according to the method of Urade, Y. et al. (J. Biol. Chem., 262, 3820-3825, (1987)). More specifically, the reaction mixture (49 μL) containing 100 mM Tris-HCl (pH 8.0), 1 mM reduced glutathione, 0.1 mg/mL γ-globulin, and human H-PGDS (q.s.), and a compound (final concentration: 0.01-100 μM) was preincubated at 25° C. for 5 minutes. A DMSO solution (final concentration: 1%) was added to the solvent control group. Subsequently, 1 μL of [^14C] prostaglandin H2 (final concentration: 10 μM) was added to start the reaction. One minute after the start of the reaction, 250 μL of a reaction stop solution (diethylether/methanol/1 M citric acid (30/4/1) at a temperature of −20° C. was added to stop the reaction. After the reaction was stopped, 50 μL of the upper-layer portion (organic solvent layer) was applied to a TLC plate and developed at −20° C. for 45 minutes (developing solvent: diethylether/methanol/acetic acid (90/2/1)). After drying the TLC plate, the TLC plate was exposed to an imaging plate for 1 to 24 hours, and the radioactivity corresponding to prostaglandin D2 (PGD2) was analyzed using an image analyzer (produced by Fujifilm Corporation). […]

[2] = system: PGD2 production in the nasal cavities of guinea pigs with antigen-induced rhinitis; assay: PGD2 production inhibiting action in the nasal cavities of guinea pigs with antigen-induced rhinitis; assay type: in vivo; conditions: 30 mg/kg orally 1 hour before induction of rhinitis reaction; washing 30 minutes after induction; * = significance level below 0.05 vs control group
Method: A physiological saline solution containing 1 mg/mL of ovalbumin was subcutaneously injected into the back of 5-week-old male Std: Hartley guinea pigs in an amount of 1 mL/body for active sensitization (initial sensitization). One week and two weeks after initial sensitization, 20 μL of a physiological saline solution containing 10 mg/mL of ovalbumin was instilled into each nasal cavity using a micropipette (sensitization by nasal administration). Three weeks after initial sensitization, 20 μL of a physiological saline solution containing 10 mg/mL of ovalbumin was instilled into each nasal cavity using a micropipette to induce a rhinitis reaction.
30 minutes after the induction of a rhinitis reaction, the nasal cavities were washed under pentobarbital sodium anesthesia. A nasal cavity washing liquid (phosphate buffered saline containing 3 mM of EDTA and 10 μM of indomethacin) was flushed using a Peristaltic Pump (Gilson, Inc.) in the direction from the trachea to the upper respiratory tract at a flow rate of 1 mL/min, and the liquid flowing out from the nasal cavities was collected for 1 minute. The collected liquid was centrifuged to separate the supernatant as the nasal cavity washing fluid. The concentration of PGD2 in the nasal cavity washing fluid was determined using an EIA kit (Prostaglandin D2-MOX EIA kit, Cayman Chemical).
The test compound (30 mg/kg) was orally administered 1 hour before induction of a rhinitis reaction. A formula to calculate the rate of decrease in PGD2 in the nasal cavity washing fluid is shown below. Rate (%) of decrease in PGD2 in the nasal cavity washing fluid={(PGD2 concentration in the control group−PGD2 concentration in the compound-administered group)÷(PGD2 concentration in the control group−PGD2 concentration in the normal group)}×100
8 or more cases were obtained from each group to determine whether expression of the PGD2 production inhibiting action occurred, and the PGD2 concentration in the nasal cavity washing fluid was compared between the control group and each compound-administered group. […] When the significance level was below 0.05, the action was considered to be present and indicated by a symbol (*) in the table. Reference Example 18, known as an H-PGDS inhibitor, was used as a positive control substance.

Row | Compound | inhibition at 0.1 µM [1] [%] | IC50 [1] [µM] | Rate (%) of decrease in PGD2 in the nasal cavity washing fluid [2] | Inhibition Rate (%) 0.1 μM [1] [%]
1 | O=C(Nc1nc2ccc(Cl)cc2s1)N1CCN(C(=O)c2cccc(F)c2)CC1 [Reference Example 16, 4-(3-fluorobenzoyl)-piperazine-1-carboxylic acid-(6-chlorobenzothiazol-2-yl)-amide, reference compound] | 33.8 | – | −38.1% | –
2 | Cn1cccc1C(=O)N1CCN(C(=O)C2CCN(c3ccc(C(=O)O)cn3)CC2)CC1 [Compound 13, 6-(4-(4-((1-methylpyrrol-2-yl)-carbonyl)-1-piperazinecarbamoyl)-piperidin-1-yl)-nicotinic acid] | – | – | – | 52.8
3 | O=C(Nc1nc2ccc(Br)cc2s1)N1CCN(C(=O)c2cccc(F)c2)CC1 [Reference Example 12, 4-(3-fluorobenzoyl)-piperazine-1-carboxylic acid-(6-bromobenzothiazol-2-yl)-amide, reference compound] | 45.1 | – | 7.9% | –
4 | COc1ccc2nc(NC(=O)N3CCN(C(=O)c4cccc(F)c4)CC3)sc2c1 [Reference Example 15, 4-(3-fluorobenzoyl)-piperazine-1-carboxylic acid-(6-methoxybenzothiazol-2-yl)-amide, reference compound] | 20.9 | – | −27.4% | –
5 | Cc1ccc2nc(NC(=O)N3CCN(C(=O)c4cccc(F)c4)CC3)sc2c1 [Reference Example 14, 4-(3-fluorobenzoyl)-piperazine-1-carboxylic acid-(6-methylbenzothiazol-2-yl)-amide, reference compound] | 27.9 | – | 26.6% | –
6 | Cc1cc2nc(NC(=O)N3CCN(C(=O)c4cccc(F)c4)CC3)sc2cc1C [Reference Example 13, 4-(3-fluorobenzoyl)-piperazine-1-carboxylic acid-(5,6-dimethylbenzothiazol-2-yl)-amide, reference compound] | 31.6 | – | 3.9% | –
7 | Cc1nc(C)n(CCCc2ccc(N3CCC(NC(=O)N4CCN(C(=O)c5cccn5C)CC4)CC3)cc2)n1 [Compound 9, 4-((1-methylpyrrol-2-yl)-carbonyl)-N-(1-(4-(3-(3,5-dimethyl-1,2,4-triazol-1-yl)-propyl)-phenyl)-piperidin-4-yl)-1-piperazinecarboxamide] | 54.2 | 0.061 | – | –
8 | CCn1cccc1C(=O)N1CCN(C(=O)NC2CCN(c3ccc(CCn4ccnn4)cc3)CC2)CC1 [Compound 16, 4-((1-ethylpyrrol-2-yl)-carbonyl)-N-(1-(4-(2-(1,2,3-triazol-1-yl)-ethyl)-phenyl)-piperidin-4-yl)-1-piperazinecarboxamide] | 68.4 | – | – | –
9 | 4-(4-(4-((1-methylpyrrol-2-yl)-carbonyl)-1-piperazinecarbamoyl)piperidin-1-yl)-benzoic acid [Compound 1] | – | 0.067 | – | 57.7
10 | CON(C)C(=O)c1[nH]c(C)c(-c2nc3ccc(C(=O)c4ccccc4)cc3[nH]2)c1C [Reference Example 18] | – | – | 77.0* % | –

Second part, led by results:

Row | inhibition at 0.1 µM [1] [%] | IC50 [1] [µM] | Compound | Rate (%) of decrease in PGD2 in the nasal cavity washing fluid [2] | Inhibition Rate (%) 0.1 μM [1] [%]
11 | 69.8 | 0.031 | Cn1cccc1C(=O)N1CCN(C(=O)NC2CCN(c3ccc(C(=O)N4CCOCC4)cc3)CC2)CC1 [Compound 4, 4-((1-methylpyrrol-2-yl)-carbonyl)-N-(1-(4-(4-morpholinylcarbonyl)phenyl)-piperidin-4-yl)-1-piperazinecarboxamide] | – | –
12 | 53.6 | – | Cn1cccc1C(=O)N1CCN(C(=O)NC2CCN(c3ccc(CCC(=O)N4CCOCC4)cc3)CC2)CC1 [Compound 12, 4-((1-methylpyrrol-2-yl)-carbonyl)-N-(1-(4-(3-morpholino-3-oxopropyl)-phenyl)-piperidin-4-yl)-1-piperazinecarboxamide] | – | –
13 | 69.1 | 0.027 | Cn1cccc1C(=O)N1CCN(C(=O)NC2CCN(c3ccc(C(=O)NCCN4CCOCC4)cc3)CC2)CC1 [Compound 3, 4-((1-methylpyrrol-2-yl)-carbonyl)-N-(1-(4-(2-morpholinoethylcarbamoyl)-phenyl)-piperidin-4-yl)-1-piperazinecarboxamide] | – | –
14 | 69.9 | 0.039 | CCn1cccc1C(=O)N1CCN(C(=O)NC2CCN(c3ccc(C(=O)NCCN4CCOCC4)cc3)CC2)CC1 [Compound 15, 4-((1-ethylpyrrol-2-yl)-carbonyl)-N-(1-(4-(2-morpholinoethylcarbamoyl)phenyl)-piperidin-4-yl)-1-piperazinecarboxamide] | – | –
15 | 63 | 0.052 | Cn1cccc1C(=O)N1CCN(C(=O)NC2CCN(c3ccc(C(=O)N4CCCC4)cc3)CC2)CC1 [Compound 6, 4-((1-methylpyrrol-2-yl)-carbonyl)-N-(1-(4-(1-pyrrolidinylcarbonyl)phenyl)-piperidin-4-yl)-1-piperazinecarboxamide] | – | –
16 | 66.7 | – | Cn1cccc1C(=O)N1CCN(C(=O)NC2CCN(c3ccc(C=CC(=O)N4CCOCC4)cc3)CC2)CC1 [Compound 11, 4-((1-methylpyrrol-2-yl)-carbonyl)-N-(1-(4-(3-morpholino-3-oxopropen-1-yl)-phenyl)-piperidin-4-yl)-1-piperazinecarboxamide] | – | –
17 | 29.2 | – | O=C(NCCN1CCOCC1)c1ccc(N2CCC(NC(=O)N3CCN(C(=O)c4cccs4)CC3)CC2)cc1 [Reference Example 4, 4-((thiophen-2-yl)-carbonyl)-N-(1-(4-(2-morpholinoethylcarbamoyl)-phenyl)-piperidin-4-yl)-1-piperazinecarboxamide, reference compound] | – | –
18 | 60.6 | – | Cn1cccc1C(=O)N1CCN(C(=O)NC2CCN(c3ccc(CCCn4cncn4)cc3)CC2)CC1 [Compound 8, 4-((1-methylpyrrol-2-yl)-carbonyl)-N-(1-(4-(3-(1,2,4-triazol-1-yl)-propyl)-phenyl)-piperidin-4-yl)-1-piperazinecarboxamide] | – | –
19 | 74.8 | 0.027 | Cn1cccc1C(=O)N1CCN(C(=O)NC2CCN(c3ccc(CCCn4ccnn4)cc3)CC2)CC1 [Compound 10, 4-((1-methylpyrrol-2-yl)-carbonyl)-N-(1-(4-(3-(1,2,3-triazol-1-yl)-propyl)-phenyl)-piperidin-4-yl)-1-piperazinecarboxamide] | – | –
20 | 57.2 | – | Cn1cccc1C(=O)N1CCN(C(=O)NC2CCN(c3ccc(C(=O)N4CCOCC4)cn3)CC2)CC1 [Compound 14, 4-((1-methylpyrrol-2-yl)-carbonyl)-N-(1-(5-(4-morpholinylcarbonyl)pyridin-2-yl)-piperidin-4-yl)-1-piperazinecarboxamide] | – | –
21 | 75 | 0.015 | Cn1cccc1C(=O)N1CCN(C(=O)NC2CCN(c3ccc(CCn4ccnn4)cc3)CC2)CC1 [Compound 7, 4-((1-methylpyrrol-2-yl)-carbonyl)-N-(1-(4-(2-(1,2,3-triazol-1-yl)-ethyl)-phenyl)-piperidin-4-yl)-1-piperazinecarboxamide] | – | –
22 | 30 | – | O=C(NCCN1CCOCC1)c1ccc(N2CCC(NC(=O)N3CCN(C(=O)c4ccccc4)CC3)CC2)cc1 [Reference Example 11, 4-benzoyl-N-(1-(4-(2-morpholinoethylcarbamoyl)-phenyl)-piperidin-4-yl)-1-piperazinecarboxamide, reference compound] | – | –
23 | 55.2 | – | Cn1cccc1C(=O)N1CCN(C(=O)NC2CCN(c3ccc(C(=O)NCc4cccnc4)cc3)CC2)CC1 [Compound 2, 4-((1-methylpyrrol-2-yl)-carbonyl)-N-(1-(4-(pyridin-3-ylmethylcarbamoyl)phenyl)-piperidin-4-yl)-1-piperazinecarboxamide] | – | –
